Results as given in paper PMC10108266, “Pharmacokinetic characteristics of golidocitinib, a highly selective JAK1 inhibitor, in healthy adult participants” (Frontiers in Immunology, 2023).
Read-outs that look alike come from different tables or passages of the source.

How the values were obtained:
[1] = JACKPOT3 SAD urinary PK (100 mg); assay type: in vivo, human; settings: single dose 100 mg
Protocol: After single oral administration, serial blood samples were obtained on Day 1 at pre-dose, and at 0.5, 1, 1.5, 2, 3, 4, 6, 8, 12, 24 (Day 2), 48 (Day 3), 72 (Day 4), 120 (Day 6), 168 (Day 8) and 216 (Day 10) hours post-dose for plasma PK analysis. Urine samples were collected during the collection intervals of 0-4, 4-10, 10-24, 24-48, 48-72, 72-96, 96-120, 120-144, and 144-168 hours following a single oral dose of 100 mg for urine PK analysis. Validated LC/MS methods were used for the determination of golidocitinib in human plasma and urine by Frontage Laboratories Inc. (Shanghai). This method was cross validated by Frontage Laboratories Inc. (New Jersey, USA) and met the acceptance criteria.
The mean (SD) amount of golidocitinib excreted in the urine over the collection period and renal clearance are presented in Table 2B . The average amount of golidocitinib excreted in the urine increased in an approximately dose proportional manner from 25 mg to 100 mg. […] The renal excretion fraction (Fe0-t) is helpful to compare the renal clearance (CLr) with total clearance (CLtotal) and determine the contribution of renal clearance in the drug elimination. It was calculated by the equation Fe0-t = CLr/CLtotal. The CL/F values were obtained from the two Phase I studies after the oral administration. Since the pharmacokinetics of golidocitinib after intravenous injection was not studied, the bioavailability value (F) was calculated by physiologically based pharmacokinetic (PBPK) model that incorporated compound specific information and independent prior knowledge on the physiology and biology at the organism.

[2] = tested on: CYP3A4/5 and flavin-containing monooxygenase enzyme (FMO); assay: Enzymatic systems implicated in metabolism; assay type: in vitro ADME
Solubility in vitro = assay type: physicochemical
[3] = JACKPOT2 single-ascending-dose plasma PK, healthy participants in USA; assay type: in vivo, human; settings: for Cmax / Tmax / AUC(0-inf) / Vd/F / half-life: human, plasma; for Cmax / AUC(0-inf): geometric mean (CV%)
From the text: This was a Phase I, randomized, double-blinded, placebo-controlled study to assess the safety, tolerability, and PK of golidocitinib in healthy participants in the USA. This study included two parts: part A (single-ascending-dose [SAD] and food effect [FE] cohorts) and part B (multiple-ascending-dose [MAD] cohorts). Please refer to Figure 1 for the study flowchart.
(§1) A total of 42 and 24 healthy participants were enrolled in part A and part B, respectively. In part A, a total of 30 participants were randomized into 5 SAD cohorts (n = 6 per cohort) and received a single dose of golidocitinib at different dose levels or a matching placebo in a 4:2 ratio. In the food effect cohort, a total of 12 participants were enrolled and received the study drug under fasted or fed conditions, with a sequential design. The 50 mg dose was selected based on available safety data after the completion of the SAD cohorts, and also on the outcomes from PK/PD modeling for potential efficacious dose for autoimmune disease. On Day 1, participants took a single dose of golidocitinib under fast condition. After a 14-day wash-out period, on Day 15, participants received another single dose of golidocitinib immediately after a standard high-fat meal. Food recipes and contents are consistent with that described in FDA Guidance for Food-Effect Bioavailability studies ([10]). For the fed condition, keeping fasted for at least 10 hours, participants started ingestion of high-fat meal 30 minutes prior to administration of golidocitinib. They had to finish the meal within 30 minutes or less, and no food was allowed for at least 4 hours post-dose. In part B, a total of 24 participants were randomized into 3 MAD cohorts, with 8 in each cohort (active:placebo = 6:2). In these cohorts, participants received golidocitinib at different dose levels or placebo once daily dosing for 14 days. Dose escalation was based on available PK and safety data in the previous cohorts.
(§2) In the SAD cohorts, serial blood samples were obtained on Day 1 at pre-dose, and at 0.5, 1, 1.5, 2, 3, 4, 6, 10, 14, 24 (Day 2), 48 (Day 3), 72 (Day 4), 120 (Day 6), 168 (Day 8) and 216 (Day 10) hours post-dose for plasma PK analysis. A similar sampling schedule was undertaken for the MAD cohorts on Day 1 and Day 14, with additional trough samples obtained on Days 5, Day 8, and Day 11. In the MAD cohorts, urine samples were collected on Day 14 during the collection intervals of 0-4, 4-10, and 10-24 hours following the last dose for urine PK analysis. Plasma and urine samples were analyzed by Frontage Laboratories Inc. (New Jersey, USA) using a validated LC/MS/MS bioanalytical method to determine golidocitinib concentrations. Cross validation in plasma was successful between Frontage Laboratories Inc. (New Jersey, USA) and Frontage Laboratories Inc. (Shanghai) using clinical samples and spiked quality control samples.
(§3) Non-compartmental PK analysis for golidocitinib concentrations was performed using Phoenix WinNonlin (Certara USA Inc., version 8.1).
(§4) Dose proportionality was concluded if the 90% confidence interval for the ratio of dose-normalized, geometric mean values (Rdnm) was contained completely within the range of 0.8 - 1.25 ([11], [12]).

[4] = JACKPOT2 multiple-ascending-dose plasma PK (once daily, 14 days); assay type: in vivo, human; settings: for Cmax / AUC(0-t) / Tmax: human, plasma, oral; for Cmax / AUC(0-t): geometric mean (CV%); for AUC(0-t): read-out: AUC0-24h; for Tmax: median (min, max)
Protocol: as §1, §2, §3, §4

[5] = 25 mg, 25 mg once daily, Day 14
[6] = 50 mg, 50 mg once daily, Day 14
[7] = 100 mg, 100 mg once daily, Day 1
[8] = 100 mg, 100 mg once daily, Day 14

COc1nn(C)cc1Nc1nccc(-c2c[nH]c3c(NC(=O)[C@@H](C)N4CCN(C)CC4)cccc23)n1 [golidocitinib, (2R)-N-[3-[2-[(3-Methoxy-1-methyl-pyrazol-4-yl)amino]pyrimidin-4-yl]-1H-indol-7-yl]-2-(4-methylpiperazin-1-yl)propenamide]
CL renal ([1]; human, urine and plasma, oral, Ae0-t/AUC0-t, mean (SD)): 67.8 mL/min | CLtotal ([1]; CL/F * F (0.7 from PBPK model)): 15.0 L/h | Fe0-t ([1]; CLr/CLtotal): 27.2% | Ae0-t ([1]; urine 0-168 hour, mean (SD)): 19.5 (6.22) mg | enzymatic systems implicated in the metabolism [2]: CYP3A4/5 and flavin-containing monooxygenase enzyme (FMO) | solubility (Solubility in vitro): high solubility | Cmax ([3]; oral, single dose 5 mg): 5.14 ng/mL | Tmax ([3]; oral, single dose 5 mg, median (min, max), read-out: tmax): 8 h | AUC(0-inf) ([3]; oral, single dose 20 mg): 923 ng·h/mL | Cmax ([3]; oral, single dose 20 mg): 18.6 ng/mL | Vd/F ([3]; oral, single dose 20 mg, mean (SD), read-out: Vz/F): 1540 L | half-life ([3]; oral, single dose 20 mg, median (min, max), read-out: t1/2 (converted)): 51.3 h | Tmax ([3]; oral, single dose 20 mg, median (min, max), read-out: tmax): 8 h | AUC(0-inf) ([3]; oral, single dose 50 mg): 2340 ng·h/mL | Cmax ([3]; oral, single dose 50 mg): 48.5 ng/mL | Vd/F ([3]; oral, single dose 50 mg, mean (SD), read-out: Vz/F): 1420 L | half-life ([3]; oral, single dose 50 mg, median (min, max), read-out: t1/2 (converted)): 42.8 h | Tmax ([3]; oral, single dose 50 mg, median (min, max), read-out: tmax): 6 h | AUC(0-inf) ([3]; oral, single dose 100 mg): 5260 ng·h/mL | Cmax ([3]; oral, single dose 100 mg): 133 ng/mL | Vd/F ([3]; oral, single dose 100 mg, mean (SD), read-out: Vz/F): 1380 L | half-life ([3]; oral, single dose 100 mg, median (min, max), read-out: t1/2 (converted)): 50.4 h | Tmax ([3]; oral, single dose 100 mg, median (min, max), read-out: tmax): 2.5 h | AUC(0-inf) ([3]; oral, single dose 150 mg): 7260 ng·h/mL | Cmax ([3]; oral, single dose 150 mg): 232 ng/mL | Vd/F ([3]; oral, single dose 150 mg, mean (SD), read-out: Vz/F): 1400 L | half-life ([3]; oral, single dose 150 mg, median (min, max), read-out: t1/2 (converted)): 46.6 h | Tmax ([3]; oral, single dose 150 mg, median (min, max), read-out: tmax): 3 h | Vd/F ([3]; single oral administration, US participants, read-out: mean Vz/F): 1380 to 1540 L | half-life ([3]; single oral administration, across the dose range, US participants, read-out: median terminal half-life (t1/2)): 42.8 to 51.3 h | Tmax ([3]; single oral administration, across the dose range, US participants, read-out: median tmax): 2.5 to 8 h | CL/F ([3]; single dose 20 mg, mean (SD)): 21.7 (1.18) L/hr | CL/F ([3]; single dose 50 mg, mean (SD)): 22.1 (6.20) L/hr | CL/F ([3]; single dose 100 mg, mean (SD)): 19.2 (3.09) L/hr | CL/F ([3]; single dose 150 mg, mean (SD)): 21.9 (8.58) L/hr | Cmax ([4]; 25 mg, 25 mg once daily, Day 1): 33.8 ng/mL | AUC(0-t) ([4]; 25 mg, 25 mg once daily, Day 1): 536 ng·h/mL | Tmax ([4]; 25 mg, 25 mg once daily, Day 1): 6 h | Cmax [4, 5]: 83.9 ng/mL | AUC(0-t) [4, 5]: 1530 ng·h/mL | Tmax [4, 5]: 6 h | Cmax ([4]; 50 mg, 50 mg once daily, Day 1): 62.1 ng/mL | AUC(0-t) ([4]; 50 mg, 50 mg once daily, Day 1): 1020 ng·h/mL | Tmax ([4]; 50 mg, 50 mg once daily, Day 1): 6 h | Cmax [4, 6]: 169 ng/mL | AUC(0-t) [4, 6]: 3190 ng·h/mL | Tmax [4, 6]: 6 h | Cmax [4, 7]: 149 ng/mL | AUC(0-t) [4, 7]: 2490 ng·h/mL | Tmax [4, 7]: 4 h | Cmax [4, 8]: 375 ng/mL | AUC(0-t) [4, 8]: 7190 ng·h/mL | Tmax [4, 8]: 6 h | increase of Cmax and AUC0-24hr on day 14 compared to day 1 (accumulation) ([4]; multiple once-daily dosing): 2-3 folds | time to steady-state plasma concentrations ([4]; once-daily dosing): ≤ 14 days
